Test results reported in US20050209278A1, “Piperidinyl- and piperazinyl-sulfonylmethyl hydroxamic acids and their use as protease inhibitors” (priority 2002, published 2005).
Read-outs that look alike come from different tables or passages of the source.

Tests used:
[1] = target: T1, MMP-14 (Homo sapiens, UniProt P50281); experiment: In vitro MMP inhibition, Ki determination (fluorogenic substrate II); assay type: biochemical; conditions: value not in parenthesis; read-out: MMP-14 Ki
T1 construct: The catalytic domain enzyme was expressed in E. coli inclusion bodies, solubilized in urea; made in house
In short: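 Apparent Ki was fitted with Morrison's equation from reaction rates at a single low enzyme level. Enzyme was APMA- or trypsin-activated refolded MMP-14 catalytic domain, buffered at pH 7.5 with 10 mM CaCl2.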

[2] = target: T2, MMP-13 (Homo sapiens, UniProt P45452); experiment: as above; assay type: biochemical; conditions: read-out: MMP-13 Ki
T2 construct: made in house; host or cells: baculovirus / insect cells
In short: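 Room-temperature, 1 h incubation of APMA-activated recombinant human MMP-13 with 4 μM quenched substrate II (cleaved at Gly-Leu) in pH 7.5 Tris/NaCl/CaCl2 buffer. Inhibition appears as a slowed rise in 330/420 nm fluorescence. Single low enzyme and substrate levels were used for Ki.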

| Ki [1] [nM] | Ki ([2]; value not in parenthesis) [nM] | Ki ([2]; value outside parentheses) [nM] | Compound |
| --- | --- | --- | --- |
| 1510 | 0.25 |  | CCCCOc1ccc(N2CCN(S(=O)(=O)C3(C(=O)NO)Cc4ccccc4C3)CC2)nc1 [Example 85] |
| 2760 | 0.18 |  | COCCN1CCC(C(=O)NO)(S(=O)(=O)N2CCN(c3ccc(OCCCCF)cc3)CC2)CC1 [Example 88] |
| 2800 | 0.17 |  | O=C(NO)C1(S(=O)(=O)N2CCN(c3ccc(OCCCCF)cc3)CC2)CCOCC1 [Example 89] |
| 4550 | 0.39 |  | CCCCOc1ccc(N2CCN(S(=O)(=O)C3(C(=O)NO)CCOCC3)CC2)c(F)c1 [Example 90] |
| 1740 | 1.64 |  | CCCCc1ccc(N2CCN(S(=O)(=O)C3(C(=O)NO)CCOCC3)CC2)c(F)c1 [Example 91] |
| 9860 | 26 |  | CCCCOc1ccc(N2CCN(S(=O)(=O)C3(C(=O)NO)CCN(c4nc5ccccc5s4)CC3)CC2)cc1 [Example 93] |
| 221 | 0.82 |  | O=C(NO)C1(S(=O)(=O)N2CCN(c3ccc(C(F)(F)F)cn3)CC2)CCOCC1 [Example 94] |
| 597 | 0.68 |  | CCCCCc1ccc(N2CCN(S(=O)(=O)C3(C(=O)NO)CCN(c4ncccn4)CC3)CC2)nc1 [Example 95] |
| 816 | 0.44 |  | CCCCc1ccc(N2CCN(S(=O)(=O)C3(C(=O)NO)CCN(c4cccnc4)CC3)CC2)nc1 [Example 96] |
| > 10000 | 21.9 |  | CCCCOc1ccc(N2CCN(S(=O)(=O)C3(C(=O)NO)CCN(C(=O)OCC(C)(C)C)CC3)CC2)cc1 [Example 97] |
| 1620 | 0.38 |  | C#CCOC(=O)N1CCC(C(=O)NO)(S(=O)(=O)N2CCN(c3ccc(OCCCC)cc3)CC2)CC1 [Example 98] |
|  |  | 9.22 | CCCCOc1ccc(N2CCN(S(=O)(=O)C3(C(=O)NO)CCN(c4ccc(C)cc4)CC3)CC2)cc1F [Example 296] |
|  |  | 1.4 | COCCOc1ccc(N2CCN(S(=O)(=O)C3(C(=O)NO)CCN(C4CC4)CC3)CC2)cc1F [Example 297] |
|  |  | 0.23 | CCCCOc1ccc(N2CCN(S(=O)(=O)C3(C(=O)NO)CCN(C4CC4)CC3)CC2)cc1 [Example 301] |

Continued, compound first:

| Compound | Ki [1] [nM] | Ki ([2]; value not in parenthesis) [nM] | Ki ([2]; value outside parentheses) [nM] |
| --- | --- | --- | --- |
| CCCCc1ccc(C2CCN(S(=O)(=O)C3(C(=O)NO)CCN(CCOC)CC3)CC2)s1 [Example 55] | 2450 | 3.94 |  |
| O=C(NO)C1(S(=O)(=O)N2CCN(c3ccc(COCC(F)(F)C(F)F)cc3)CC2)CCOCC1 [Example 71] |  | 0.79 |  |
| O=C(NO)C1(S(=O)(=O)N2CCN(c3ccc(COCC(F)(F)F)cc3)CC2)CCOCC1 [Example 72] | 7570 | 0.85 |  |
| O=C(NO)C1(S(=O)(=O)N2CCN(c3ccc(OC4CCC4)c(F)c3)CC2)CCOCC1 [Example 73] | 2360 | 9.78 |  |
| O=C(NO)C1(S(=O)(=O)N2CCN(c3ccc(OCc4ccccc4)cn3)CC2)CCOCC1 [Example 74] | 454 | 0.06 |  |
| O=C(NO)C1(S(=O)(=O)N2CCN(c3ccc(-c4ccccc4)cc3)CC2)CCOCC1 [Example 76] | 358 | 0.4 |  |
| O=C(NO)C1(S(=O)(=O)N2CCN(c3ccc(CCC(F)(F)F)cc3)CC2)CCOCC1 [Example 77] | 1180 | 0.84 |  |
| CCN1CCC(C(=O)NO)(S(=O)(=O)N2CCN(c3ccc(OCCCC(F)(F)F)cc3)CC2)CC1 [Example 78] | > 10000 | 0.43 |  |
| CC(C)COc1ccc(N2CCN(S(=O)(=O)C3(C(=O)NO)CCOCC3)CC2)cc1Cl [Example 79] | 8820 | 6.62 |  |
| O=C(NO)C1(S(=O)(=O)N2CCN(c3ccc(OCCCC(F)(F)F)cc3F)CC2)CCOCC1 [Example 81] | 2430 | 0.261 |  |
| O=C(NO)C1(S(=O)(=O)N2CCN(c3cccc(C(F)(F)F)c3)CC2)CCOCC1 [Example 82] | 1600 | 7.49 |  |
| O=C(NO)C1(S(=O)(=O)N2CCN(c3ccc(OCCCC(F)(F)F)cn3)CC2)CCOCC1 [Example 83] | 981 | 0.048 |  |
| CCCCOc1ccc(N2CCN(S(=O)(=O)C3(C(=O)NO)CCN(C(C)(C)C)CC3)CC2)c(F)c1 [Example 84] | > 10000 | 1.91 |  |
